Read-outs that look alike come from different tables or passages of the source. Non-standard residues stand in square brackets, D forms with d. Residues, ends and D or L forms follow the SMILES beside them. Phe(4-F) = N[C@@H](Cc1ccc(F)cc1)C(=O)O
Experiments:
cyclin A = cyclin A (Homo sapiens, UniProt P20248); assay: Competitive cyclin A binding assay
CDK2/cyclin A = CDK2/cyclin A (Homo sapiens, UniProt P20248); assay: CDK2/cyclin A kinase activity assay; assay type: biochemical
[1] = read-out: IC50 CDK2/cyclin A kinase activity

Chain of cyclin A (P20248 whole entry): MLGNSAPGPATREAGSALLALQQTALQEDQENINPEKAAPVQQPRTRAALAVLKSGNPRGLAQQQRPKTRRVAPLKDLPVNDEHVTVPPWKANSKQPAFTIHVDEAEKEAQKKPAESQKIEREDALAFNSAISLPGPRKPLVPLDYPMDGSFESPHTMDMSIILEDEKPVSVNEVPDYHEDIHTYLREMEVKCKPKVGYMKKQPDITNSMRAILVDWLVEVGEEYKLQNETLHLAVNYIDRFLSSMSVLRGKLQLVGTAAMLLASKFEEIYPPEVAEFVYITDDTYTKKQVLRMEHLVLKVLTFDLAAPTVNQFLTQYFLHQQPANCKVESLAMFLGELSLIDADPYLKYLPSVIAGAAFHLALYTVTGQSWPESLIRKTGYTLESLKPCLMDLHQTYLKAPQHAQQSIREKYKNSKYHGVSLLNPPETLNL

Row | Compound | IC50 (cyclin A) [µM] | IC50 (CDK2/cyclin A; [1]) [µM] | IC50 (CDK2/cyclin A) [µM]
1 | CC(C)C[C@H](NC(=O)[C@H](CCCNC(=N)N)NC(=O)[C@@H](N)CCCNC(=N)N)C(=O)N[C@@H](Cc1ccccc1)C(N)=O [SEQ ID NO: 20, H-Arg-Arg-Leu-Phe-NH2] (H-RRLF-NH2) | 8.1 | > 50 | –
2 | CC(C)C[C@H](NC(=O)[C@H](CCCNC(=N)N)NC(=O)[C@@H](N)CCCNC(=N)N)C(=O)N[C@@H](Cc1ccc(F)cc1)C(N)=O [SEQ ID NO: 29, H-Arg-Arg-Leu-—-(p-F-Phe)-NH2] (H-RRL[Phe(4-F)]-NH2) | 19 | 50 | –
3 | CC(=O)N[C@@H](CCCN=C(N)N)C(=O)N[C@@H](CCCN=C(N)N)C(=O)N[C@@H](CC(C)C)C(=O)N[C@@H](CC(N)=O)C(=O)N[C@@H](Cc1ccccc1)C(N)=O [SEQ ID NO: 30, Ac-Arg-Arg-Leu-Asn-Phe-NH2] | – | – | > 50

From patent US20050260730A1, “CDK2/cyclin A crystals and uses thereof” (priority 2003, published 2005)
